Assay results: US11591306B2, “Vitamin E-based amphipathic compound, and use thereof” (Industry-University Cooperation Foundation Hanyang …, priority 2017, dated 2023)

Legend:
[1] = system: T1, LHI-RC complex; assay: LHI-RC structural stability, UV-Vis absorbance at 875 nm; set-up: species or system R. capsulatus; details: CMC+0.04 wt % or CMC+0.2 wt %, 20 days at 25° C.
T1 construct: His tag (only implied by Ni2+-NTA capture and imidazole elution; put on M from own knowledge of pUHTM86Bgl); made in house; host or cells: R. capsulatus U43 [pUHTM86Bgl] membranes
Experimental: An experiment was conducted to evaluate the ability of VEGs to stabilize the structure of LHI-RC. The photosynthetic superassembly consists of a complex of light-Harvesting complex I (LHI) and a reaction center (RC). The structural stability of LHI-RC was measured by a method of monitoring the structure of a protein for 20 days using UV-Vis spectroscopy. As amphipathic molecules, all VEGs of the present invention and conventional amphipathic molecules DDM and OG were used, and the concentrations of the amphipathic molecules were measured at CMC+0.04 wt % (FIG. 5A) and CMC+0.2 wt % ([…]), and the stability of the LHI-RC protein was investigated according to the concentration of an amphipathic molecule.
Specifically, LHI-RC stability was measured using a method disclosed in the paper published in 2008 by the inventors (P. S. Chae et al., ChemBioChem 2008, 9, 1706-1709). […] A 10 mL aliquot of the solution of the frozen R. capsulatus membrane was homogenized using a glass homogenizer, and incubated with gentle stirring at 32° C. for 30 minutes. The homogenized membrane was treated with 1.0 wt % DDM for 30 minutes at 32° C. […] Protein stability was measured at regular intervals during the cubation by measuring UV-Vis spectra of the samples in the range of 650 to 950 nm. Protein integrity was evaluated by monitoring absorbance (A875) at 875 nm.

[2] = target: T2, β2AR-Gs complex (Homo sapiens, UniProt P07550); assay: β2AR-Gs complex stability by analytical gel filtration (SEC); details: complex purified in VEG-3, 3 and 15-day incubation, compound-free running buffer
T2 construct: made in house
Experimental: 100 μM β2AR solubilized in 0.1% DDM mixed with 120 μM Gs heterotrimer for 30 minutes at room temperature. 0.5-unit apyrase (NEB) and 2 mM MgCl2 were added to facilitate complex formation, followed by further incubation for one hour. Subsequently, 1.0% VEG-3 was added such that the final concentration reached 0.2%, and the sample was further incubated for 30 minutes to change DDM to VEG-3. The protein solution was loaded into a M1 Flag column, washed with a series of buffers with different molar ratios of 0.1% DDM buffer to 0.5% VEG-3 buffer to completely change DDM to VEG-3, and the receptor-Gs complex was finally eluted with a 0.05% VEG-3 buffer. Preparative gel filtration was performed to purify the β2AR-Gs complex with a running buffer (20 mM HEPES pH 7.5, 100 mM NaCl, 0.005% DTM-A6, 1 mM BI, […]). To measure the stability of the β2AR-Gs complex in VEG-3, analytical gel filtrations were performed using the running buffer as above, but after 3 and 15-day incubation, performed without VEG-3 (compound-free condition).

[3] = Critical micelle concentration by hydrophobic fluorescence staining with diphenylhexatriene (DPH); format: physicochemical; details: aqueous solution
Experimental: A method of measuring CMC is not particularly limited, and may be a method widely known in the art, for example, fluorescent staining using diphenylhex riene (DPH).
To identify the properties of VEGs synthesized according to the synthetic methods of Preparation Examples 1 to […] molecular weights (M.W.) and critical micellar concentrations (CMCs) of VEGs, and the hydrodynamic radii (Rh) of formed micelles were measured.
Specifically, the CMCs were measured using hydrophobic fluorescence staining and diphenylhexatriene (DPH), and the hydrodynamic radii (Rh) of the micelles formed by each formulation were measured by dynamic light scattering (DLS).

[4] = target: UapA (Emericella nidulans, UniProt Q07307, G411V); assay: UapA thermal stability, CPM assay; set-up: made in house; host or cells: Saccharomyces cerevisiae FGY217 membranes; details: CMC+0.2 wt %, 40° C. for 120 minutes
Experimental: UapAG411VΔ1-11 (hereinafter, referred to as “UapA”) was expressed in a Saccharomyces cerevisiae FGY217 strain by GFP fusion, and isolated into a sample buffer (20 mM Tris (pH 7.5), 150 mM NaCl, 0.03% DDM, 1 mM xanthine), which was performed according to the method disclosed in the paper written by J. Leung et al. (Mol. Menthr. Biol. 2013, 30, 32-42). The protein was concentrated to be approximately 10 mg/ml using a 100 kDa molecular weight cutoff filter (Millipore). The protein was diluted 1:150 with a buffer containing DDM, VEG (VEG-1, VEG-2, VEG-3, VEG-4 or VEG-5) or LMNG at CMC+0.2 wt % in Greiner 96. CPM dye (Invitrogen) stored in DMSO (Sigma) was diluted with a dye buffer (20 mM Tris (pH 7.5), 150 mM NaCl, 0.03% DDM, 5 mM EDTA), and 3 μL of the diluted dye was added to an individual protein sample. The reaction mixture was treated at a constant temperature of 40° C. for 120 minutes. A fluorescence emission intensity was monitored using a microplate spectrofluorometer set to excitation and emission wavelengths of 387 and 463 nm, respectively. The maximum fluorescence value was used to calculate the percentage of a protein folded during incubation. The relative amount of the folded protein was plotted over time using GraphPad Prism.

Cc1c(C)c2c(c(C)c1OCC(=O)NC(CO[C@@H]1OC(CO)[C@@H](O[C@H]3OC(CO)[C@@H](O)[C@H](O)C3O)[C@H](O)C1O)CO[C@@H]1OC(CO)[C@@H](O[C@H]3OC(CO)[C@@H](O)[C@H](O)C3O)[C@H](O)C1O)CCC(C)(CCCC(C)CCCC(C)CCCC(C)C)O2 (some centres unmarked) [VEG-3]
Ability to maintain the integrity of the LHI-RC complex (A875) [1]: most excellent effect | Integrity of the purified β2AR-Gs complex (SEC) [2]: continuously maintains its integrity as a complex for 15 days | CMC [3]: ~0.002 mM | CMC (wt %) [3]: ~0.0002 wt % | Ability to maintain UapA in a structurally stable state (CPM assay) [4]: excellent ability to maintain UapA in a structurally stable state
